Values of other authors in paper PMC6261507 (ACS applied nano materials, 2018).

Test system: integrin αvβ3

## Arg-Gly-Asp [RGD, arginine-glycine-aspartic acid]
  affinity towards integrin αvβ3: nanomolar affinity
